According to ChEMBL document CHEMBL4020813, “The ProTide Prodrug Technology: From the Concept to the Clinic” (J Med Chem, 2018):

Experiments:
[1] = test system: Ebolavirus; test: Antiviral activity against Ebolavirus infected in human HuH7 cells after 3 days by end point dilution assay; type: functional, cell-based; details: Orthoebolavirus, Huh-7, 72 h
[2] = Cytotoxicity against human HuH7 after 4 to 5 days by Cell-Titer Glo viability assay; type: cell-based, Huh-7; details: HuH7 cells
[3] = test system: Ebolavirus; test: Antiviral activity against Ebolavirus H. sapiens-tc/COD/1995/Kikwit infected in rhesus monkey assessed as host survival at 10 mg/kg, iv administered as bolus dose; type: functional; details: Orthoebolavirus, in Macaca mulatta
[4] = test system: Ebolavirus; test: Antiviral activity against Ebolavirus H. sapiens-tc/COD/1995/Kikwit infected in rhesus monkey assessed as host survival at 3 mg/kg, iv administered as bolus dose; type: functional; details: Orthoebolavirus, in Macaca mulatta
[5] = test system: Ebolavirus; test: Antiviral activity against Ebolavirus infected in human primary macrophages after 48 hrs by immuno-staining assay; type: functional; details: Orthoebolavirus
[6] = Cytotoxicity against human primary macrophages after 4 to 5 days by Cell-Titer Glo viability assay; type: cell-based, Macrophage
[7] = Half life in human primary macrophages assessed as nucleoside triphosphate level at 10 uM; type: ADME, cell-based; details: macrophage
[8] = Half life in rhesus monkey plasma at 10 mg/kg, iv administered as bolus dose by LC-MS/MS analysis; type: ADME, organism-based, Macaca mulatta
[9] = test system: Ebolavirus; test: Antiviral activity against Ebolavirus infected in human HeLa cells after 48 hrs by immuno-staining assay; type: functional, cell-based; details: Orthoebolavirus
[10] = Cytotoxicity against human HeLa after 4 to 5 days by Cell-Titer Glo viability assay; type: cell-based; details: HeLa cells
[11] = Tmax in po dosed human; type: ADME, organism-based; details: in vivo
[12] = Half life in po dosed human; type: ADME, organism-based; details: in vivo
[13] = Plasma concentration in dog at 5 mg/kg at 1 hr post dose
[14] = Half life in human; type: ADME
[15] = in vivo; details: dog, po, 20 mg/kg
[16] = Half life in beagle dog intestine
[17] = Half life in human MT2 cells by HPLC analysis
[18] = Plasma concentration in dog at 5 mg/kg at 0.14 hrs post dose
[19] = Half life in beagle dog hepatic S9 fraction
[20] = in vivo; details: dog, po, 2 mg/kg
[21] = Fraction absorbed in human; type: ADME; details: read-out: Fabs
[22] = test system: Plasma; test: Protein binding in plasma of patient with end stage renal disease; type: ADME, cell-free; details: human
[23] = Fraction absorbed in po dosed portal vein cannulated dog; type: ADME, organism-based, Canis lupus familiaris; details: in vivo, read-out: Fabs
[24] = Protein binding in human plasma; type: ADME, cell-free; details: read-out: PPB (converted)
[25] = Renal clearance in human at 100 to 800 mg; type: ADME
[26] = Drug recovery in human urine at 100 to 800 mg; type: ADME; details: read-out: Drug recovery
[27] = Oral bioavailability in portal vein cannulated dog; type: ADME, organism-based, Canis lupus familiaris; details: in vivo
[28] = test system: HT-29; test: Antitumor activity against human HT-29 cells xenografted in nude mouse assessed as tumor growth inhibition relative to control; type: functional
[29] = species: Homo sapiens; test: Cmax in human assessed as dFdCTP level; type: ADME
[30] = species: Homo sapiens; test: Reduction in tumor growth in patient with solid malignancies; type: functional
[31] = test system: JM1; test: Cytotoxicity against human JM1 cells; type: cell-based
[32] = test system: Human immunodeficiency virus 1; test: Antiviral activity against HIV1 infected in human JM1 cells; type: functional, cell-based; details: Human immunodeficiency virus 1, JM1

## CCC(CC)COC(=O)[C@H](C)N[P@](=O)(OC[C@H]1O[C@@](C#N)(c2ccc3c(N)ncnn23)[C@H](O)[C@@H]1O)Oc1ccccc1
[1]
  EC50: 0.07 µM
[2]
  CC50: > 20 µM
[3]
  survival at 10 mg/kg: 100%
[4]
  survival at 3 mg/kg: 50%
[5]
  EC50: 0.086 µM
[6]
  CC50: > 20 µM
[7]
  t1/2: 960 min
[8]
  half-life: 23.4 min
[9]
  EC50: 0.14 µM
[10]
  CC50: > 20 µM

## C[C@]1(F)[C@H](O)[C@@H](CO)O[C@H]1n1ccc(=O)[nH]c1=O
[11]
  Tmax: 120 to 240 min
[12]
  half-life: 28.8 to 45 min

## CC(C)OC(=O)[C@H](C)N[P@](=O)(CO[C@H](C)Cn1cnc2c(N)ncnc21)Oc1ccccc1 [TENOFOVIR ALAFENAMIDE]
[13]
  concentration at 1 h: 18 µM
[14]
  half-life: 92 min
[15]
  bioavailability: 24.7%
[16]
  half-life: 31 min
[17]
  half-life: 28.3 min
[18]
  concentration at […]: 1.58 µM
[19]
  half-life: 31 min
[20]
  bioavailability: 1.7%

## CC(C)OC(=O)[C@H](C)N[P@](=O)(OC[C@H]1O[C@@H](n2ccc(=O)[nH]c2=O)[C@](C)(F)[C@@H]1O)Oc1ccccc1 [SOFOSBUVIR]
[11]
  Tmax: 30 to 120 min
[21]
  Fa: > 80%
[22]
  PPB: 85%
[23]
  Fa: 36%
[24]
  fraction unbound: 0.18
[25]
  CL renal: 238 mL/min
[26]
  dose excreted: 3.5%
[27]
  bioavailability: 9.9%

## C[C@H](NP(=O)(OC[C@H]1O[C@@H](n2cc(F)c(=O)[nH]c2=O)C[C@@H]1O)Oc1cccc2ccccc12)C(=O)OCc1ccccc1 (stereo partly specified) [FOSIFLOXURIDINE NAFALBENAMIDE]
[28]
  TGI: 47%

## N#C[C@@]1(c2ccc3c(N)ncnn23)O[C@H](CO)[C@@H](O)[C@H]1O [GS-441524]
[1]
  EC50: 1.5 µM
[2]
  CC50: > 20 µM
[5]
  EC50: > 20 µM
[6]
  CC50: > 20 µM
[9]
  EC50: > 20 µM
[10]
  CC50: > 20 µM

## C[C@H](NP(=O)(OC[C@H]1O[C@@H](n2ccc(N)nc2=O)C(F)(F)[C@@H]1O)Oc1ccccc1)C(=O)OCc1ccccc1 (stereo partly specified) [FOSGEMCITABINE PALABENAMIDE]
[29]
  Cmax: 475 µM
[30]
  TGI: >30%
[14]
  half-life: 498 min

## O=c1[nH]cc(F)c(=O)[nH]1 [FLUOROURACIL]
[28]
  TGI: 25%

## COC(=O)[C@H](C)NP(=O)(OC[C@H]1O[C@@H](n2cc(C)c(=O)[nH]c2=O)C[C@@H]1N=[N+]=[N-])Oc1ccc(OC)cc1 (stereo partly specified)
[31]
  IC50: 100 µM
[32]
  EC50: 0.8 µM
